Assay results as given in US20190031618A1, “BENZIMIDAZOLE DERIVATIVES USEFUL AS CB-1 INVERSE AGONISTS” (Janssen Pharmaceutica NV, priority 2015, published 2019).

Columns and labels:
[1] = target: Human CB1R (Cannabinoid receptor 1) (Homo sapiens, UniProt P21554); assay: CB-1 in vitro cAMP (HTRF) assay; format: cell-based; settings: for EC50: HEK cells, cAMP HTRF, 250 nM forskolin, mean where tested more than once, read-out: CB1 HEK_cAMP EC50
In short: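 Intracellular cAMP from HTRF ratio (d2-cAMP vs Eu-cryptate anti-cAMP), converted to nM via per-plate standards, in stable human CB1R HEK-293 cells.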

[2] = target: Human CB2R (Cannabinoid receptor 2) (Homo sapiens, UniProt P34972); assay: CB-2 in vitro cAMP (HTRF) assay; format: cell-based; settings: for EC50: HEK cells, cAMP HTRF, 250 nM forskolin, mean where tested more than once, read-out: CB2 HEK_cAMP EC50
In short: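 Competitive HTRF read-out (d2-labelled cAMP vs cryptate antibody) quantifies cAMP in stably transfected HEK-293 cells, seeded the day before at 4E5 cells/mL. Stimulation buffer: HBSS, 5 mM HEPES, 0.1% BSA, 0.5 mM IBMX; forskolin prepared at 1.5 μM in buffer; compounds serially diluted 1/3 in DMSO.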

Chain of Human CB1R (Cannabinoid receptor 1) (P21554 whole entry): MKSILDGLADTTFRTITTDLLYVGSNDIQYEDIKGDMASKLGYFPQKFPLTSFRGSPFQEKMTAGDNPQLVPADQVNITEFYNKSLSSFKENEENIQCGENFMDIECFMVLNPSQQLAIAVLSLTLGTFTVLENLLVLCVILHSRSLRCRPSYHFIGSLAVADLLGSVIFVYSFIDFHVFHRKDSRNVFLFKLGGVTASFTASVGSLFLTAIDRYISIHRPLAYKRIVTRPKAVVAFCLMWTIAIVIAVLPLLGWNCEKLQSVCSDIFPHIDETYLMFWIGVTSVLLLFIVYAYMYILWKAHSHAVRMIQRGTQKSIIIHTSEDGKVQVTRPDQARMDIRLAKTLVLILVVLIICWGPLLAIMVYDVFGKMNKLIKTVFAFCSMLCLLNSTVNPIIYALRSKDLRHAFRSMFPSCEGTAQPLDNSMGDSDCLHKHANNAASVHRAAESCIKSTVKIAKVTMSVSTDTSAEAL
Chain of Human CB2R (Cannabinoid receptor 2) (P34972 whole entry): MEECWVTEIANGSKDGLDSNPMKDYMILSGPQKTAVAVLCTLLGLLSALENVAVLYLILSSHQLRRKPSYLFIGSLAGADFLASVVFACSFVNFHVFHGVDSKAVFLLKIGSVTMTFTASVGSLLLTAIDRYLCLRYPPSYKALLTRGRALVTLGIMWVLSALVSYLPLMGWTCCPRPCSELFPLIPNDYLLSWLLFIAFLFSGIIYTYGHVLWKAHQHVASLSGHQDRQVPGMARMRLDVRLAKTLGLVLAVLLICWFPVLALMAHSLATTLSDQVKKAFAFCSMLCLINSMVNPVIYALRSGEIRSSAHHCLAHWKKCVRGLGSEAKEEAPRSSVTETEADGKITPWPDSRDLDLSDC

Structure (SMILES)	EC50 [1] [nM]	EC50 [2] [µM]	IC50 ([1]; first line of the list, HEK-293 cells, cAMP, 250 nM Forskolin) [nM]	IC50 ([2]; second line, the sentence announces activity against CB-1 and CB-2, read-out: CB-1 receptor: IC50 (second line of the list)) [µM]
Clc1ccc(C(c2ccc3ncn(-c4cccc(Cl)c4)c3c2)c2nccs2)cc1 (centres unmarked) [Example 435]	> 10000	> 10		
Cc1nc2ccc(C(c3ccc(Cl)cc3)c3nccs3)cc2n1-c1cccc(Cl)c1 (centres unmarked) [Example 436]	473	> 10		
Cc1nc2ccc(C(c3ccc(Cl)cc3)c3nccs3)cc2n1CCc1cccc(Cl)c1 (centres unmarked) [Example 437]	192	> 10		
Clc1ccc(C(c2ccc3ncn(CCc4cccc(Cl)c4)c3c2)c2nccs2)cc1 (centres unmarked) [Example 438]	315	> 10		
CCOC(=O)N1CCC(n2c(N(C)C)nc3ccc(C(c4ccc(Cl)cc4)c4nccs4)cc32)CC1 (centres unmarked) [Example 439]	> 10000	> 10		
CCOC(=O)N1CCC(n2c(N)nc3ccc(C(c4ccc(Cl)cc4)c4nccs4)cc32)CC1 (centres unmarked) [Example 440]	999	> 10		
CCOC(=O)N1CCC(n2c(-c3ccc(Cl)cc3)nc3ccc(C(c4ccc(Cl)cc4)c4nccs4)cc32)CC1 (centres unmarked) [Example 441]	2090	> 10		
Clc1ccc(-c2nc3ccc(C(c4ccc(Cl)cc4)c4nccs4)cc3n2C2CCCCC2)cc1 (centres unmarked) [Example 442]	3400	> 10		
CCOC(=O)N1CCC(n2c(-c3ccc(Cl)cc3Cl)nc3ccc(C(c4ccc(Cl)cc4)c4nccs4)cc32)CC1 (centres unmarked) [Example 443]	1430	4.95		
Clc1ccc(C(c2ccc3nc(-c4ccc(Cl)cc4Cl)n(C4CCCCC4)c3c2)c2nccs2)cc1 (centres unmarked) [Example 444]	535	> 10		
CCOC(=O)N1CCC(n2c(C)nc3ccc(C(c4ccc(Cl)cc4)c4nccs4)cc32)CC1 (centres unmarked) [Example 445]	947	> 10		
CCOC(=O)N1CCC(n2cnc3ccc(C(c4ccc(Cl)cc4)c4nccs4)cc32)CC1 (centres unmarked) [Example 448]	100	> 10		
CC(C)(C)c1csc(C(c2ccc(Cl)cc2)c2ccc3ncn(Cc4ccc(Cl)cc4)c3c2)n1 (centres unmarked) [Example 449]	> 10000	> 10		
CCc1csc(C(c2ccc(Cl)cc2)c2ccc3nc(C)n(Cc4ccc(Cl)cc4)c3c2)n1 (centres unmarked) [Example 452]	813	> 6.7		
Cc1nc2ccc(C(c3ccc(Cl)cc3)c3nc(C(F)(F)F)cs3)cc2n1Cc1ccc(Cl)cc1 (centres unmarked) [Example 455]	2410	> 7.4		
CCc1csc(C(c2ccc(Cl)cc2)c2ccc3nc(-c4ccc(Cl)cc4)n(Cc4ccc(Cl)cc4)c3c2)n1 (centres unmarked) [Example 456]	> 10000	> 9.2		
CCc1csc(C(c2ccc(Cl)cc2)c2ccc3ncn(Cc4ccc(Cl)cc4)c3c2)n1 (centres unmarked) [Example 460]	> 10000	> 10		
FC(F)(F)c1csc(C(c2ccc(Cl)cc2)c2ccc3ncn(Cc4ccc(Cl)cc4)c3c2)n1 (centres unmarked) [Example 462]	> 10000	> 6.6		
Cc1nc2ccc(C(c3ccc(Cl)cc3)c3nccs3)cc2n1Cc1ccc(Cl)cc1 (centres unmarked) [Example 463]	164	> 7.6		
Clc1ccc(Cn2c(-c3ccc(Cl)cc3)nc3ccc(C(c4ccc(Cl)cc4)c4nccs4)cc32)cc1 (centres unmarked) [Example 464]	212	> 7.2		
Clc1ccc(Cn2cnc3ccc(C(c4ccc(Cl)cc4)c4nccs4)cc32)cc1 (centres unmarked) [Example 466]	> 8700	1.43		
O=S(=O)(c1cccc(NCCOCCOCc2ccccc2)c1)N1CCC(n2c(C3CC3)nc3ccc(C(c4ccc(Cl)cc4)c4ccc(Cl)cc4)cc32)CC1 [compound of formula (II), N-(2-(2-(benzyloxy)ethoxy)ethyl)-3-((4-(6-(bis(4-chlorophenyl)methyl)-2-cyclopropyl-1H-benzo[d]imidazol-1-yl)piperidin-1-yl)sulfonyl)aniline]			13.5	> 10
